# Data taken from ChEMBL document CHEMBL2203104, “Recent advances in antitubercular natural products” (Eur J Med Chem, 2012).
# Experiments:
# Assay type in all cases: functional
# [1] = tested on: Mycobacterium tuberculosis; assay: Antimycobacterial activity against Mycobacterium tuberculosis
# [2] = tested on: Mycobacterium tuberculosis; assay: Antimycobacterial activity against Mycobacterium tuberculosis H37Rv ATCC 27294
# [3] = tested on: Mycobacterium tuberculosis; assay: Antimycobacterial activity against Mycobacterium tuberculosis H37Ra
smiles,measurement,setting,value
C/C=C/C(=O)OC[C@H]1O[C@@H](Oc2cccc3cc(C)c(C(C)=O)c(O)c23)[C@H](O)[C@@H](O)[C@@H]1O [RUMEXNEPOSIDE A],MIC,[1],20.7 µM
COc1cc(O[C@@H]2O[C@H](CO)[C@@H](O)[C@H](O)[C@H]2O)c2c(O)c(C(C)=O)c(C)cc2c1,MIC,[1],8.9 µM
CCC1C=CCC[C@@]2(C[C@@H]3CC[C@@H]4[C@H](C(=O)OCCCCCCCCCCCCCCCC(=O)N(CCCN)C[C@@H](O)CCN)[C@]5(CCC[C@@H](C)O5)NC(=N2)N34)O1 (stereo not given in full),MIC,[2],46.5 µg/mL
C=C1C(=O)O[C@@H]2/C=C(/CO)C3=CC(=O)[C@@](C)(C[C@H](OC(=O)/C(C)=C\C)[C@@H]12)O3 [CENTRATHERIN],MIC,[3],3.1 µg/mL
O=Cc1cc2c(cc1O)[nH]c1cc(O)ccc12 [CLAUSINE O],MIC,[3],25 µg/mL
CCCCCCC[C@@H]1C[C@@H]2CCC3=C(C(=O)OC(C)CCCCCCC[C@@H]4C[C@@H]5CC[C@@H]6C[C@H](C)NC(=N4)N65)C(C)N=C(N1)N32 (stereo not given in full) [BATZELLADINE N],MIC,[2],3.18 µg/mL
CCCCC/C=C/C=C/C(=O)N1CCCC1 [SARMENTINE],MIC,[3],50 µg/mL
CCc1c(OC)cc2c(c1O)C(=O)C=C(OC)C2=O,MIC,[3],12.5 µg/mL
CC[C@H](C)[C@H]1C(=O)N[C@@H](Cc2ccc(OCC=C(C)C)cc2)C(=O)N(C)[C@@H](C)C(=O)O[C@H](Cc2ccccc2)C(=O)N2CCC[C@H]2C(=O)N[C@@H](CO)C(=O)N1C [PULLULARIN A],MIC,[3],25 µg/mL
CC(=O)OC[C@H]1O[C@@H](Oc2cccc3c2C(=O)c2c(O)cc(C)cc2C3=O)[C@H](O)[C@@H](O)[C@@H]1O,MIC,[1],4.1 µM
COc1cc(OC)c(-c2coc3cc(O)cc(O)c3c2=O)cc1O [DALPARVONE],MIC,[3],50 µg/mL
COc1c(O)cc2c(c1CC=C(C)C)C(=O)c1c(cc(OS(=O)(=O)O)c(CC=C(C)C)c1O)C2,MIC,[1],6.75 µM
CSSc1cccc[n+]1[O-],MIC,[2],1.25 µg/mL
CC(C)CC(NC(=O)NC(Cc1c[nH]c2ccccc12)C(=O)O)C(=O)NC(C(=O)N/C=C1\C[C@@H](O)[C@H](n2ccc(=O)[nH]c2=O)O1)C(C)N(C)C(=O)C1Cc2cc(O)ccc2C(C)(C)N1 (stereo not given in full) [SANSANMYCIN G],MIC,[2],16 µg/mL
CC(C)CNC(=O)/C=C/C=C/CCCCCCCC/C=C/c1ccc2c(c1)OCO2 [BRACHYSTAMIDE B],MIC,[3],50 µg/mL
CCCCCCC[C@@H]1C[C@@H]2CCC3=C(C(=O)OCCCCCCC[C@@H]4C[C@@H]5CC[C@@H]6C[C@H](C)NC(=N4)N65)C(C)N=C(N1)N32 (stereo not given in full),MIC,[2],28.5 µg/mL
CC(C)[C@]12C=C3CC[C@H]4[C@](C)(C(=O)O)CCC[C@]4(C)[C@]3(CC1)OO2,MIC,[1],50 µg/mL
COc1cc2c(cc1OC)-c1c3c(cc4c1[C@@H](C2)NCC4)OCO3,MIC,[3],12.5 µg/mL
CSCCC(NC(=O)NC(Cc1c[nH]c2ccccc12)C(=O)O)C(=O)NC(C(=O)N/C=C1\C[C@@H](O)[C@H](n2ccc(=O)[nH]c2=O)O1)C(C)N(C)C(=O)C1Cc2cc(O)ccc2C(C)(C)N1 (stereo not given in full) [SANSANMYCIN F],MIC,[2],16 µg/mL
C=C[C@@]1(C)C=C2CC[C@@H]3[C@](C)(CCC[C@@]3(C)C(=O)O)[C@H]2CC1 [PIMARIC ACID],MIC,[1],50 µg/mL
CC(C)C(O)C(=O)N/C=C\C=C/NC(=O)C(O)C(C)C (stereo not given) [PHOMOENAMIDE],MIC,[1],6.25 µg/mL
CCCC/C=C/C#CC#CC(C)CCCCCCC(=O)O (stereo not given),MIC,[3],25 µg/mL
COc1ccc2c(=O)c3c(oc2c1)-c1cc2c(cc1CO3)OCO2,MIC,[3],6.25 µg/mL
CCCCCCC[C@H]1C[C@H]2CCC3=C(C(=O)OCCCCNC(=N)N)C(CCCCC)=NC(=N1)N32,MIC,[2],37.7 µg/mL
COc1cccc2c1C(=O)c1nccc3cc4c(c-2c13)OCO4 [OXOSTEPHANINE],MIC,[1],50 µg/mL
COC1=CC(=O)c2c(cc(OC)c(C(C)C3=C(O)C(=O)c4cc(O)cc(O)c4C3=O)c2O)C1=O (stereo not given),MIC,[3],6.25 µg/mL
C=C1C(=O)O[C@@H]2/C=C(\C(=O)O)CC/C=C(\C)CC[C@@H]12,MIC,[3],50 µg/mL
O=C(/C=C/C=C/CC/C=C/c1ccc2c(c1)OCO2)N1CCCC1,MIC,[3],25 µg/mL
CCCCCCCCC[C@@H]1C[C@@H]2CC[C@H]3[C@@H](C(=O)OC(C)CCCCCCC[C@@H]4C[C@@H]5CC[C@@H]6C[C@H](C)NC(=N4)N65)[C@@H](C)N=C(N1)N23 (stereo not given in full) [BATZELLADINE L],MIC,[2],1.68 µg/mL
CC(=O)c1c(C)cc2cccc(O[C@@H]3O[C@H](CO)[C@@H](O)[C@H](O)[C@H]3O)c2c1O,MIC,[1],26.6 µM
O=C1CC[C@H](O)c2cc(O)cc(O)c21,MIC,[3],12.5 µg/mL
C=C(C)C(=O)O[C@H]1C[C@@]2(C)OC(=CC2=O)C(=C)[C@@H](O)[C@H]2OC(=O)C(=C)[C@@H]21 [ISOGOIAZENSOLIDE],MIC,[3],1.5 µg/mL
C=C(C)[C@@H]1CC[C@]2(C(=O)O)CC[C@]3(C)[C@H](CC[C@@H]4[C@@]5(C)CC[C@H](O)C(C)(C)[C@@H]5CC[C@]43C)[C@@H]12 [BETULINIC ACID],MIC,[3],25 µg/mL
"COc1ccc2c(=O)c(OC)c(-c3ccccc3)oc2c1 [3,7-DIMETHOXYFLAVONE]",MIC,[3],50 µg/mL
C/C(=C\CO)CCCC(C)CCCC(C)CCCC(C)C (stereo not given),MIC,[2],1.56 µg/mL
